Experiment [1] addresses T1, BTK enzyme (recombinant full-length BTK, hBTK) (Homo sapiens, UniProt Q06187).
T1 construct: recombinant protein from baculovirus-transfected Sf9 cells: full-length BTK, 6HIS-tag cleaved; 6HIS (cleaved yes); made in house; host or cells: baculovirus-transfected Sf9 cells
The experiment in a line: BTK enzyme activity assay, LANCE TR-FRET. As to conditions: 50 pM hBTK, 2 μM biotin-A5-peptide, 25 μM ATP; 60 min compound & enzyme incubation; read-out: IC50 BTK activity value. It counts as biochemical.

In a further experiment the test system is HeLa cells. Briefly: [3H]Adenosine uptake functional cellular assay. It counts as cell-based. As to conditions: Homo sapiens, HeLa, accumulation of [3H]adenosine into HeLa cells; compound range 10 μM to […]; read-out: Adenosine uptake inhibition IC50. Put shortly:
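Inhibition of adenosine uptake was measured in HeLa cells (ATCC CCL-2) by following accumulation of tritiated adenosine. Cells were kept overnight at 37° C. with 5% (v/v) CO2, then switched to 40 μL HBSS plus 5% (v/v) FBS. 20 μL of 500 nM [3H]adenosine was added, and uptake was counted on a Topcount NXT reader.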

T1 sequence (Q06187 whole entry): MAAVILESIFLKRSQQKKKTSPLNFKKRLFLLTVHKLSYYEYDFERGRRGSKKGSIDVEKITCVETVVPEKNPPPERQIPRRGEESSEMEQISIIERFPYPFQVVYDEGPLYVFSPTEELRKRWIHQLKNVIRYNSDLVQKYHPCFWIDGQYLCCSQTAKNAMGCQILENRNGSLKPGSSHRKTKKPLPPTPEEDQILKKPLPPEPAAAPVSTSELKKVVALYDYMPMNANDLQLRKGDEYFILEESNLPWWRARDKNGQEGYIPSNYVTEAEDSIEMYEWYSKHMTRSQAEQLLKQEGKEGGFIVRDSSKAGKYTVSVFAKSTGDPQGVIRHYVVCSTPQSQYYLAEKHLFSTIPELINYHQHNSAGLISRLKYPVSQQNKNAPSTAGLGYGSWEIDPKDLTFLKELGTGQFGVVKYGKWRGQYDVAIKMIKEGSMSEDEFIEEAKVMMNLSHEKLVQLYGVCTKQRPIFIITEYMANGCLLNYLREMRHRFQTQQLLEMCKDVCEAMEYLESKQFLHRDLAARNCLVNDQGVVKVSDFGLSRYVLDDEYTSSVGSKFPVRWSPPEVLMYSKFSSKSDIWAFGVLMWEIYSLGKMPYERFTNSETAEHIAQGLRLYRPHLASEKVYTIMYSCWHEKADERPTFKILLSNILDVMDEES

`CN1CC(=O)N2C[C@H](c3nc(-c4ccc(C(=O)Nc5cc(C(F)(F)F)ccn5)cc4)c4c(N)nccn34)CC[C@H]2C1` [Example 50, 4-{8-amino-3-[(7R,9aS)-2-methyl-4-oxooctahydro-2H-pyrido[1,2-a]pyrazin-7-yl]imidazo[1,5-a]pyrazin-1-yl}-N-[4-(trifluoromethyl)pyridin-2-yl]benzamide]: the IC50 in experiment [1] came to 0.26 nM; in the experiment with HeLa cells, 45.1 nM.
The matching figures for `CN1CC(=O)N2C[C@@H](c3nc(-c4ccc(C(=O)Nc5cc(C(F)(F)F)ccn5)cc4)c4c(N)nccn34)CC[C@@H]2C1` [Example 51, 4-{8-amino-3-[(7S,9aR)-2-methyl-4-oxooctahydro-2H-pyrido[1,2-a]pyrazin-7-yl]imidazo[1,5-a]pyrazin-1-yl}-N-[4-(trifluoromethyl)pyridin-2-yl]benzamide]: 1.6 nM and 188 nM.
The matching figures for `CC1(C)OC(=O)N2C[C@H](c3nc(-c4ccc(C(=O)Nc5cc(C(F)(F)F)ccn5)cc4)c4c(N)nccn34)CC[C@H]21` [Example 52, 4-{8-amino-3-[(6R,8aS)-1,1-dimethyl-3-oxohexahydro[1,3]oxazolo[3,4-a]pyridin-6-yl]imidazo[1,5-a]pyrazin-1-yl}-N-[4-(trifluoromethyl)pyridin-2-yl]benzamide]: 0.13 nM and 50.1 nM.
The matching figures for `COc1cc(C(=O)Nc2cc(C3CC3)ccn2)ccc1-c1nc([C@@H]2CC[C@H]3[C@@H](C)OC(=O)N3C2)n2ccnc(N)c12` [Example 53, 4-{8-amino-3-[(1R,6R,8aS)-1-methyl-3-oxohexahydro[1,3]oxazolo[3,4-a]pyridin-6-yl]imidazo[1,5-a]pyrazin-1-yl}-N-(4-cyclopropylpyridin-2-yl)-3-methoxybenzamide]: 0.5 nM and 296 nM.
Turning to `Nc1nccn2c([C@H]3CC[C@@H]4COCCN4C3)nc(-c3ccc(C(=O)Nc4cc(C(F)(F)F)ccn4)cc3)c12` [Example 56, 4-{8-amino-3-[(7S,9aR)-octahydropyrido[2,1-c][1,4]oxazin-7-yl]imidazo[1,5-a]pyrazin-1-yl}-N-[4-(trifluoromethyl)pyridin-2-yl]benzamide], the IC50 was determined as 1.8 nM in experiment [1] and 114 nM with HeLa cells.
The matching figures for `Nc1nccn2c([C@H]3CC[C@H]4CNCC(=O)N4C3)nc(-c3ccc(C(=O)Nc4cc(C(F)(F)F)ccn4)cc3)c12` [Example 57, 4-{8-amino-3-[(7S,9aS)-4-oxooctahydro-2H-pyrido[1,2-a]pyrazin-7-yl]imidazo[1,5-a]pyrazin-1-yl}-N-[4-(trifluoromethyl)pyridin-2-yl]benzamide]: 0.28 nM and at least 10000 nM.
The matching figures for `Nc1nccn2c([C@H]3CC[C@@H]4C[C@H](O)C(=O)N4C3)nc(-c3ccc(C(=O)Nc4cc(C(F)(F)F)ccn4)cc3)c12` [Example 58, 4-{8-amino-3-[(2S,6S,8aR)-2-hydroxy-3-oxooctahydroindolizin-6-yl]imidazo[1,5-a]pyrazin-1-yl}-N-[4-(trifluoromethyl)pyridin-2-yl]benzamide]: 4.1 nM and 811 nM.
The matching figures for `Nc1nccn2c([C@@H]3CC[C@H]4C[C@@H](O)C(=O)N4C3)nc(-c3ccc(C(=O)Nc4cc(C(F)(F)F)ccn4)cc3)c12` [Example 59, 4-{8-amino-3-[(2R,6R,8aS)-2-hydroxy-3-oxooctahydroindolizin-6-yl]imidazo[1,5-a]pyrazin-1-yl}-N-[4-(trifluoromethyl)pyridin-2-yl]benzamide]: 0.13 nM and 398 nM.
Regarding `CNc1nccn2c([C@@H]3CC[C@H]4CCC(=O)N4C3)nc(-c3ccc(C(=O)Nc4cc(C(F)(F)F)ccn4)cc3)c12` [Example 60, 4-{8-(methylamino)-3-[(6R,8aS)-3-oxooctahydroindolizin-6-yl]imidazo[1,5-a]pyrazin-1-yl}-N-[4-(trifluoromethyl)pyridin-2-yl]benzamide], the IC50 was 12.7 nM in experiment [1] and 44.1 nM in the experiment with HeLa cells.
The matching figures for `CCNC(=O)Nc1nccn2c([C@@H]3CC[C@H]4CCC(=O)N4C3)nc(-c3ccc(C(=O)Nc4cc(C(F)(F)F)ccn4)cc3)c12` [Example 61, 4-{8-[(ethylcarbamoyl)amino]-3-[(6R,8aS)-3-oxooctahydroindolizin-6-yl]imidazo[1,5-a]pyrazin-1-yl}-N-[4-(trifluoromethyl)pyridin-2-yl]benzamide]: 17.7 nM and 19.2 nM.
In the case of `C[C@H]1CC(=O)N2C[C@H](c3nc(-c4ccc(C(=O)Nc5cc(C(F)(F)F)ccn5)cc4)c4c(N)nccn34)CC[C@H]12` [Example 64, 4-{8-amino-3-[(1S,6R,8aR)-1-methyl-3-oxooctahydroindolizin-6-yl]imidazo[1,5-a]pyrazin-1-yl}-N-[4-(trifluoromethyl)pyridin-2-yl]benzamide], the IC50 came out at 0.77 nM in experiment [1] and 114 nM with HeLa cells.
The matching figures for `Nc1nccn2c([C@@H]3CC[C@H]4CN(CCO)CC(=O)N4C3)nc(-c3ccc(C(=O)Nc4cc(C(F)(F)F)ccn4)cc3)c12` [Example 66, 4-{8-amino-3-[(7R,9aS)-2-(2-hydroxyethyl)-4-oxooctahydro-2H-pyrido[1,2-a]pyrazin-7-yl]imidazo[1,5-a]pyrazin-1-yl}-N-[4-(trifluoromethyl)pyridin-2-yl]benzamide]: 0.13 nM and 206 nM.
For `Nc1nccn2c([C@H]3CC[C@@H]4C[C@@H](O)C(=O)N4C3)nc(-c3ccc(C(=O)Nc4cc(C(F)(F)F)ccn4)cc3)c12` [Example 67, 4-{8-amino-3-[(2R,6S,8aR)-2-hydroxy-3-oxooctahydroindolizin-6-yl]imidazo[1,5-a]pyrazin-1-yl}-N-[4-(trifluoromethyl)pyridin-2-yl]benzamide], in that order: 3.7 nM and 410 nM.
For `Nc1nccn2c([C@@H]3CC[C@H]4C[C@H](O)C(=O)N4C3)nc(-c3ccc(C(=O)Nc4cc(C(F)(F)F)ccn4)cc3)c12` [Example 68, 4-{8-amino-3-[(2S,6R,8aS)-2-hydroxy-3-oxooctahydroindolizin-6-yl]imidazo[1,5-a]pyrazin-1-yl}-N-[4-(trifluoromethyl)pyridin-2-yl]benzamide], in that order: 0.081 nM and 430 nM.
Regarding `CCOc1cc(C(=O)Nc2cc(C(F)(F)F)ccn2)ccc1-c1nc([C@@H]2CC[C@H]3CCC(=O)N3C2)n2ccnc(N)c12` [Example 69, 4-{8-amino-3-[(6R,8aS)-3-oxooctahydroindolizin-6-yl]imidazo[1,5-a]pyrazin-1-yl}-3-ethoxy-N-[4-(trifluoromethyl)pyridin-2-yl]benzamide], the IC50 in experiment [1] was determined as 0.16 nM; in the experiment on HeLa cells it was 1440 nM.
For `Nc1nccn2c([C@@H]3CC[C@H]4CCC(=O)N4C3)nc(-c3ccc(C(=O)Nc4cc(C(F)(F)F)ccn4)cc3OC(F)F)c12` [Example 71, 4-{8-amino-3-[(6R,8aS)-3-oxooctahydroindolizin-6-yl]imidazo[1,5-a]pyrazin-1-yl}-3-(difluoromethoxy)-N-[4-(trifluoromethyl)pyridin-2-yl]benzamide], in that order: 0.48 nM and 732 nM.
The matching figures for `Nc1nccn2c([C@H]3CC[C@H]4C[C@@H](O)C(=O)N4C3)nc(-c3ccc(C(=O)Nc4cc(C(F)(F)F)ccn4)cc3)c12` [Example 73, 4-{8-amino-3-[(2R,6S,8aS)-2-hydroxy-3-oxooctahydroindolizin-6-yl]imidazo[1,5-a]pyrazin-1-yl}-N-[4-(trifluoromethyl)pyridin-2-yl]benzamide]: 0.93 nM and 973 nM.
For `Nc1nccn2c([C@H]3CN4C(=O)OC[C@H]4CO3)nc(-c3ccc(C(=O)Nc4cc(C(F)(F)F)ccn4)cc3)c12` [Example 76, 4-(8-amino-3-((6R,8aR)-3-oxohexa hydrooxazolo[4,3-c][1,4]oxazin-6-yl)imidazo[1,5-a]pyrazin-1-yl)-N-(4-(trifluoromethyl)pyridin-2-yl)benzamide], in that order: 24.9 nM and 682 nM.
Turning to `C[C@H]1OC[C@@H]2CC[C@@H](c3nc(-c4ccc(C(=O)Nc5cc(C(F)(F)F)ccn5)cc4)c4c(N)nccn34)CN2C1=O` [Example 77, 4-(8-amino-3-((3R,7R,9aS)-3-methyl-4-oxooctahydropyrido[2,1-c][1,4]oxazin-7-yl)imidazo[1,5-a]pyrazin-1-yl)-N-(4-(trifluoromethyl)pyridin-2-yl)benzamide], the IC50 amounted to 0.13 nM in experiment [1] and 31.2 nM in the experiment on HeLa cells.
For `N#C/N=C1\CC[C@@H]2CC[C@@H](c3nc(-c4ccc(C(=O)Nc5cc(C(F)(F)F)ccn5)cc4)c4c(N)nccn34)CN12` [Example 78, 4-(8-amino-3-((6R,8aS,E)-3-(cyanoimino)octahydroindolizin-6-yl)imidazo[1,5-a]pyrazin-1-yl)-N-(4-(trifluoromethyl)pyridin-2-yl)benzamide], in that order: 0.46 nM and 132 nM.
For `COC(=O)Nc1nccn2c([C@@H]3CC[C@H]4CCC(=O)N4C3)nc(-c3ccc(C(=O)Nc4cc(C(F)(F)F)ccn4)cc3)c12` [Example 79, methyl (3-((6R,8aS)-3-oxooctahydroindolizin-6-yl)-1-(4-((4-(trifluoromethyl)pyridin-2-yl)carbamoyl)phenyl)imidazo[1,5-a]pyrazin-8-yl)carbamate], in that order: 7.3 nM and 295 nM.
The matching figures for `CCN1CC(=O)N2C[C@H](c3nc(-c4ccc(C(=O)Nc5cc(C(F)(F)F)ccn5)cc4)c4c(N)nccn34)CC[C@H]2C1` [Example 80, 4-(8-amino-3-((7R,9aS)-2-ethyl-4-oxooctahydro-1H-pyrido[1,2-a]pyrazin-7-yl)imidazo[1,5-a]pyrazin-1-yl)-N-(4-(trifluoromethyl)pyridin-2-yl)benzamide]: 0.27 nM and 82.5 nM.

As a reminder, the IC50 is the point on the concentration scale where inhibition reaches its midpoint.

The values are drawn from patent US20140206681A1, “BTK INHIBITORS” (priority 2013, published 2014).
